Test results: US8791064B2, “Beta-lactoglobulin-polysaccharide nanoparticles for hydrophobic bioactive compounds” (Technion Research and Development Foundation Ltd., priority 2008, dated 2014)
“And” between values parts separate entries of the source, which are not always exact repeats. Equal entries are not always repeated. Where two headings read alike, the source gives them in different places.

Assays:
[1] = cited from earlier work; for pI of β-lactoglobulin: literature value (Jameson et al., 2002)
[2] = Partition of vitamin D2 between nanocomplex pellet and serum (ultracentrifugation, RP-HPLC); type: physicochemical
Experimental: To evaluate the encapsulation of the vitamin within the nanoparticles, the partition of the vitamin between the particles and the serum was studied. For this purpose, an ultra centrifuge (15,000×g) was used to separate the nanocomplexes (pellet) from the serum (supernatant), and the concentration of vitamin D2 in the pellet was compared to that in the serum. Vitamin content of particles and serum was analyzed by solvent extraction followed by reversed phase HPLC, according to the method described in Semo et al., 2007, Food Hydrocolloids 21:936. […] Therefore, vitamin concentration in the nanoparticle pellet was 55 times higher than vitamin concentration in the serum, and 5.7 times higher than the initial concentration of the vitamin in the dispersion (13.5 μg mL^−1).

[3] = Vitamin D2 accelerated shelf-life stress test at 30° C.; type: physicochemical; conditions: pH 4.25, 30° C., 125 hours
Experimental: FIG. 7: Effect of encapsulation on stability of vitamin D during an accelerated shelf-life stress test at pH 4.25: samples were stored at 30° C. in closed vials containing 10 mL of solution and 10 mL of air, for a period of 125 hours: (▪) VD2-loaded β-lactoglobulin) (▴) complexes of VD2-β-lactoglobulin-pectin (pH 4.25). (♦) control of unprotected VD2 in water.

[4] = Electrophoretic mobility / zeta potential; type: physicochemical
Text: Four criteria were used in order to evaluate the β-lactoglobulin-polysaccharide nanocomplexes and find the conditions (pH and ratio) which yield transparent suspensions containing small and stable nanoparticles: Sedimentation—Qualitative observation of the solutions in glass vials, following overnight equilibration at room temperature; Turbidity—Measured by an Ultrospec 3000 spectrophotometer (GE Healthcare, Life Sciences, UK), at 600 nm using 1 cm path cuvettes: Samples were vortexed prior to analysis; Electrophoretic mobility (EM or μe)—Measured using a zeta potential/particle size analyzer NICOMP™ 380 (Particle Sizing Systems Ltd. Santa Barbara, Calif., Agilent Technologies Inc., USA). The EM was measured under a 3 V/cm e-field at 25° C.; and Particle size—measured by Dynamic Light Scattering using the NICOMP™380 at 23° C. using 0.933 cp for the viscosity of the medium.
The stability of these colloidal systems was studied by measuring the electrophoretic mobility (EM) of the colloidal particles (FIGS. 12 and 13). Because the ionic strength of the studied systems was very low, and the particles are both very small and “soft” (being aggregates of oppositely charged polymers), the precise calculation of zeta potential from EM is not possible, due to the complexity of the system, and the limitations of currently available theoretical models. […]

CC/C=C\C/C=C\C/C=C\C/C=C\C/C=C\C/C=C\CCC(=O)O [DHA, docosahexaenoic acid]
pKa of DHA ([1]; Namani et al., 2007): ≈ 8.5

C=C1CC[C@H](O)C/C1=C/C=C1\CCC[C@]2(C)[C@@H]([C@H](C)/C=C/[C@H](C)C(C)C)CC[C@@H]12 [Vitamin D2, ergocalciferol]
vitamin concentration in the nanoparticle pellet relative to the initial concentration in the dispersion ([2]; initial concentration 13.5 μg mL^−1): 5.7 times higher
Vitamin D2 concentration in the supernatant (serum) ([2]; β-lactoglobulin-pectin nanocomplex dispersion centrifuged at 15,000×g): 1.4 µg/mL
vitamin concentration in the nanoparticle pellet relative to the serum ([2]; β-lactoglobulin-pectin nanocomplexes): 55 times higher
Vitamin D2 concentration in the pellet ([2]; β-lactoglobulin-pectin nanocomplexes separated at 15,000×g, initial concentration 13.5 μg mL^−1): 77.26 µg/mL
degradation of the vitamin (ranking) ([3]; unprotected control, vitamin D dispersion in water): fastest degradation rate
degradation of the vitamin (ranking) ([3]; vitamin D2 in β-lactoglobulin-pectin nanocomplexes, closed vials with 10 mL air): slowest degradation

β-lactoglobulin: bovine β-lactoglobulin isolate (Davisco), major whey protein, 18.4 kDa
isoelectric point from electrophoretic mobility versus pH ([4]; 0.05% β-lactoglobulin alone, 25° C., low ionic strength (FIG. 13)): 5.2
zeta potential ([4]; pure β-lactoglobulin 0.05% wt, no pectin, pH 3.5 to 4.5): +6 mV
pI of β-lactoglobulin [1]: 5.18 and 5.1
pI of β-lactoglobulin ([1]; listed as lactoglobulin): 5.18
